# Experimental data reported in patent US5541163A, “Renin inhibiting N-(2-amino-2-oxoethyl)butanediamide derivatives” (Bio-Mega/Boehringer Ingelheim Research Inc., priority 1993, dated 1996).
# Molecular target: T1, human renin (Homo sapiens, UniProt P00797)
# T1 construct: A human plasma pool is used as the source of both the substrate (angiotensinogen) and the enzyme (renin); from tissue; host or cells: human plasma pool
# T1 sequence (P00797 67-406): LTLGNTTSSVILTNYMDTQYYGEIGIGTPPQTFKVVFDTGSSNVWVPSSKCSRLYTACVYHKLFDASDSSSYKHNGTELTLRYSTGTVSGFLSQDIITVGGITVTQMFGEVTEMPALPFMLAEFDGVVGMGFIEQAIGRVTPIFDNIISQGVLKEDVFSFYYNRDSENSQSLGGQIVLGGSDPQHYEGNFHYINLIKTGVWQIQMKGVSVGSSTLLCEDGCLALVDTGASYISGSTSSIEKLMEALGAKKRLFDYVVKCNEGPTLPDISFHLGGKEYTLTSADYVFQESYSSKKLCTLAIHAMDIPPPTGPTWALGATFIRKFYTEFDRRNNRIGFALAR
# Experiment: Plasma renin assay (inhibition of human renin, angiotensin I by RIA)
# Type: biochemical
# Details: human plasma pool, pH 6.0, 2 h incubation at 37°
# Procedure, shortened: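 Pooled human plasma supplies both renin and angiotensinogen; inhibitor in MES/1% HSA buffer (1% DMSO final) incubated 2 h at 37° at pH 6.0. Angiotensin I generated quantified by radioimmunoassay, inhibition relative to no-inhibitor control, IC50 by nonlinear regression.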
row,IC50 [nM],SMILES
1,13,"CC(C)C[C@H](O)[C@H](O)[C@H](CC1CCCCC1)NC(=O)[C@@H](CC(=O)N(CC(=O)N(C)C)[C@@H](C)c1ccccc1)Cc1cccs1 [Compound 32, N^4-(2-(dimethylamino)-2-oxoethyl]-N^4-(1(S)-phenylethyl]-N^1-[1(S)-(cyclohexylmethyl)-2(R),3(S)-dihydroxy-5-methylhexyl]-2(S)-(2-thienylmethyl)butanediamide]"
2,1,"CC(C)C[C@H](O)[C@H](O)[C@H](CC1CCCCC1)NC(=O)[C@@H](CC(=O)N(CC(=O)N(C)CCc1ccccn1)[C@@H](C)c1ccccc1)Cc1csc(N)n1 [Compound 75, N^4 -{2-{methyl[2-(2-pyridinyl)ethyl]-amino}-2-oxoethyl}-N^4-[1(S)-phenylethyl]-N^1-[1(S)-(cyclohexylmethyl)-2(R),3(S)-dihydroxy-5-methylhexyl]-2(R)-[(2-amino-4-thiazolyl)methyl]butanediamide]"
3,6.8,"C[C@@H](c1ccccc1)N(CC(=O)N(C)C)C(=O)C[C@@H](Cc1csc(N)n1)C(=O)N[C@@H](CC1CCCCC1)[C@@H](O)[C@@H](O)C1CC1 [Compound 43, N^4-[2-(dimethylamino)-2-oxoethyl]-N^4-[1(S)-phenylethyl]-N^1-[1(S)-(cyclohexylmethyl)-2(R),3(S)-dihydroxy-(3-cyclopropylpropyl)]-2(R)-[(2-amino-4-thiazolyl)methyl]-butanediamide]"
4,1,"CC(C)C[C@H](O)[C@H](O)[C@H](CC1CCCCC1)NC(=O)[C@@H](CC(=O)N(CC(=O)N(C)CCc1ccccn1)[C@@H](C)C1CCCCC1)Cc1csc(N)n1 [Compound 63, N^4-[1(S)-cyclohexylethyl]-N^4 -{2-{methyl[2-(2-pyridinyl)ethyl]-amino}-2-oxoethyl}-N^1-[1(S)-(cyclohexylmethyl)-2(R),3(S)-dihydroxy-5-methylhexyl]-2(R)-[(2-amino-4-thiazolyl)methyl]butanediamide]"
5,2,"CC(C)C[C@H](O)[C@H](O)[C@H](CC1CCCCC1)NC(=O)[C@@H](CC(=O)N(CCC1CCCC1)CC(=O)N(C)CCc1ccccn1)Cc1csc(N)n1 [Compound 87, N^4-(2-cyclopentylethyl)-N^4 -{2-{methyl[2-(2-pyridinyl)ethyl]amino}-2-oxoethyl}-N^1-[1(S)-(cyclohexylmethyl)-2(R),3(S)-dihydroxy-5-methylhexyl]-2(R)-[(2-amino-4-thiazolyl)-methyl]butanediamide]"
6,3.5,"CC(C)C[C@H](O)[C@H](O)[C@H](CC1CCCCC1)NC(=O)[C@@H](CC(=O)N(CC(=O)N(C)C)C[C@@H](C)c1ccccc1)Cc1csc(N)n1 [Compound 61, N^4-[2-(dimethylamino)-2-oxoethyl]-N^4-[2(S)-phenylpropyl]-N^1-[1(S)-(cyclohexylmethyl)-2(R),3(S)-dihydroxy-5-methylhexyl]-2(R)-[(2-amino-4-thiazolyl)methyl]-butanediamide]"
7,10,"CC(C)C[C@H](O)[C@H](O)[C@H](CC1CCCCC1)NC(=O)[C@@H](CC(=O)N(CC(=O)N(C)C)CC1CCCCC1)Cc1cccnc1 [Compound 58, N^4-(cyclohexylmethyl)-N^4-[2-(dimethylamino)-2-oxoethyl]-N^1-[1(S)-(cyclohexylmethyl)-2(R),3(S)-dihydroxy-5-methylhexyl]-2(R)-(3-pyridinylmethyl)butanediamide]"
8,10,"CC(C)C[C@H](O)[C@H](O)[C@H](CC1CCCCC1)NC(=O)[C@@H](CC(=O)N(CC(=O)N(C)C)Cc1ccccn1)Cc1csc(N)n1 [Compound 64, N^4-[2-(dimethylamino)-2-oxoethyl]-N^4-(2-pyridinylmethyl)-N^1-[1(S)-(cyclohexylmethyl)-2(R),3(S)-dihydroxy-5-methylhexyl]-2(R)-[(2-amino-4-thiazolyl)methyl]-butanediamide]"
9,1,"CC(C)C[C@H](O)[C@H](O)[C@H](CC1CCCCC1)NC(=O)[C@@H](CC(=O)N(CC(=O)N(C)CCc1ccccn1)CC1CCCCCC1)Cc1csc(N)n1 [Compound 81, N^4-(cycloheptylmethyl)-N^4 -{2-{methyl[2-(2-pyridinyl)ethyl]amino}-2-oxoethyl}-N^1-[1(S)-(cyclohexylmethyl)-2(R),3(S)-dihydroxy-5-methylhexyl]-2(R)-[(2-amino-4-thiazolyl)-methyl]butanediamide]"
10,55,"C[C@@H](c1ccccc1)N(CC(=O)N(C)C)C(=O)C[C@@H](CC1CC1)C(=O)N[C@@H](CC1CCCCC1)[C@@H](O)[C@@H]1CC(C)(C)N(C)C1=O [Compound 42, N^4-[2-(dimethylamino)-2-oxoethyl]-N^4-[1(S)-phenylethyl]-N^1-[1(S)-(cyclohexylmethyl)-2(S)-hydroxy-2-(1,5,5-trimethyl-2-oxopyrrolidin-3(S)-yl)ethyl]-2(R)-(cyclopropylmethyl)butanediamide]"
11,0.4,"CC(C)C[C@H](O)[C@H](O)[C@H](CC1CCCCC1)NC(=O)[C@@H](CC(=O)N(CC(=O)N(C)CCc1cccnc1)CC1CCCCC1)Cc1csc(N)n1 [Compound 76, N^4-(cyclohexylmethyl)-N^4 -{2-{methyl[2-(3-pyridinyl)ethyl]-amino}-2-oxoethyl}-N^1-[1(S)-(cyclohexylmethyl)-2(R),3(S)-dihydroxy-5-methylhexyl]-2(R)-[(2-amino-4-thiazolyl)methyl]butanediamide]"
12,170,"CC(C)C[C@H](O)[C@H](O)[C@H](CC1CCCCC1)NC(=O)[C@@H](CC(=O)N(CC(=O)N(C)C)[C@@H](C)c1cccc2ccccc12)CC1CC1 [Compound 18, N^4-[2-(dimethylamino)-2-oxoethyl]-N^4-[1(S)-(1-naphthylethyl)]-N^1-[1(S)-(cyclohexylmethyl)-2(R),3(S)-dihydroxy-5-methylhexyl]-2(R)-(cyclopropylmethyl)butanediamide]"
13,3,"CC(C)C[C@H](O)[C@H](O)[C@H](CC1CCCCC1)NC(=O)[C@@H](CC(=O)N(CC(=O)N(C)CCc1ccccn1)Cc1ccoc1)Cc1csc(N)n1 [Compound 89, N^4-(3-furanylmethyl)-N^4 -{2-{methyl-[2-(2-pyridinyl)ethyl]amino}-2-oxoethyl}-N^1-[1(S)-(cyclohexylmethyl)-2(R),3(S)-dihydroxy-5-methylhexyl]-2(R)-[(2-amino-4-thiazolyl)-methyl]butanediamide]"
14,0.6,"CC(C)C[C@H](O)[C@H](O)[C@H](CC1CCCCC1)NC(=O)[C@@H](CC(=O)N(CC(=O)N(C)C)CC1CCCCCC1)Cc1csc(N)n1 [Compound 78, N^4-(cycloheptylmethyl)-N^4-[2-(dimethylamino)-2-oxoethyl]-N^1-[1(S)-(cyclohexylmethyl)-2(R),3(S)-dihydroxy-5-methylhexyl]-2(R)-[(2-amino-4-thiazolyl)methyl]butanediamide]"
15,120,"CC(C)C[C@H](O)[C@H](O)[C@H](CC1CCCCC1)NC(=O)[C@@H](CC(=O)N(CC(=O)N1CCOCC1)[C@@H](C)c1ccccc1)CC1CC1 [Compound 33, N^4-[1(S)-phenylethyl-N^4-(2-morpholino-2-oxoethyl)-N^1-1(S)-(cyclohexylmethyl)-2(R),3(S)-dihydroxy-5-methylhexyl]-2(R)-(cyclopropylmethyl)butanediamide]"
